Source: article PMC7504721, “Targeting the Initiator Protease of the Classical Pathway of Complement Using Fragment-Based Drug Discovery” (Molecules, 2020)

Columns and labels:
[1] = test system: classical pathway; test: Classical pathway-specific ELISA-based complement inhibition assay (C4b deposition, IgM-coated plate, human serum); type: biochemical; details: single 500 µM concentration, triplicate, 1% normal human serum, unpaired t-test p < 0.05
Experimental: To carry out classical pathway ELISA-based inhibition assays, IgM was dissolved in coating buffer (100 mM Na2CO3/NaHCO3, pH 9.6) to a final concentration of 3 µg/mL and was dispensed into 96-well plates at 100 µL per well. Mannan was dissolved to 2 µg/mL and lipopolysaccharides (LPS) were dissolved to 10 µg/mL in coating buffer for use in lectin and alternative pathway inhibition assays, respectively. Immobilization was allowed to proceed overnight at 25 °C. The immobilization reagent was then removed, followed by three washes in washing buffer (50 mM Tris pH 8.0, 200 mM NaCl, 0.05% (v/v) Tween-20), and blocked using 100 µL of 1% (w/v) bovine serum albumin in PBS-T for 1 h at 37°C. Blocking buffer was removed and plates were washed three times in washing buffer. Next, 500 µM of each compound, 5% (v/v) DMSO, and 1% (v/v) normal human serum (Innovative Research) (final concentrations) were dissolved in classical/lectin pathway ELISA buffer (20 mM HEPES (pH 7.3), 0.1% (w/v) gelatin, 140 mM NaCl, 2 mM CaCl2, 0.5 mM MgCl2) and added to the IgM-coated plate for 1 h at 37 °C. For the lectin pathway-specific ELISAs shown in Figure 5D, we used C1q-depleted serum from CompTech at 2% (v/v) and thus the classical pathway assays for this analysis were also performed using serum from CompTech at 2% (v/v). For the alternative pathway, 20% (v/v) normal human serum (CompTech) (final concentration) and alternative pathway ELISA buffer (20 mM HEPES, (pH 7.5), 0.1% (w/v) gelatin, 140 mM NaCl, 2 mM CaCl2, 0.5 mM MgCl2) were used in place of classical/lectin pathway ELISA buffer. Plates were then washed three times in wash buffer and each well was filled with 100 µL of α-C4 (HYB 162-02, Santa Cruz Biotechnology) diluted 1:300 for classical and lectin pathway assays and 100 µL of C3b (WM-1, Sigma) diluted 1:300 for alternative pathway assays. Plates were again incubated at 37 °C for 1 h, washed three times, filled with 100 µL of HRP-conjugated goat-α-mouse secondary antibody (diluted 1:3000) (Thermo Scientific, Waltham, MA, USA), and rocked gently for 1 h at 25 °C. After three more washes, 50 µl of substrate (1-step Ultra TMB, Thermo Scientific, Waltham, MA, USA) was added to each well and rocked for 15 min in the dark at 25 °C. The reaction was stopped with 50 µL of 0.16 M sulfuric acid, and the plate was read at 450 nm using an EnSight multimode plate reader (Perkin-Elmer). Each column contained a positive control for full complement activity (5% (v/v) blank DMSO with 1% (v/v) serum) and a negative control for no complement activity (5% (v/v) blank DMSO and no serum). Positive controls (1% (v/v) serum, no inhibitor) were defined as 100% C4b or C3b signal whereas negative controls (no serum) were defined as 0% C4b or C3b signal for each column. Compounds that inhibited complement deposition relative to the control were then evaluated using the same assay setup across a two-fold variable concentration series for each compound (7.8–500 µM). […] All experiments were performed no less than three times.
Statistical analyses were performed using GraphPad Prism version 8. For complement inhibition assays, measures of statistical significance for single-dose experiments were assessed using unpaired Student’s t-tests compared to no inhibitor controls (pathway ELISAs) or non-binding control compounds (classical pathway ELISA). Statistical significance was defined as p < 0.05. Calculation of IC50 values from dose-dependent complement assays were obtained by non-linear regression analysis using a using an inhibitor vs. response model and with 95% confidence intervals reported. For non-linear regression analyses, the top and bottom of each curve were constrained to 100 and 0, respectively.

[2] = biological target: T1, full-length C1r (Homo sapiens, UniProt P00736); test: SPR dose-dependent binding, steady-state affinity
T1 construct: purchased Complement Technology (CompTech)
T1 sequence (P00736 18-463 limits assumed): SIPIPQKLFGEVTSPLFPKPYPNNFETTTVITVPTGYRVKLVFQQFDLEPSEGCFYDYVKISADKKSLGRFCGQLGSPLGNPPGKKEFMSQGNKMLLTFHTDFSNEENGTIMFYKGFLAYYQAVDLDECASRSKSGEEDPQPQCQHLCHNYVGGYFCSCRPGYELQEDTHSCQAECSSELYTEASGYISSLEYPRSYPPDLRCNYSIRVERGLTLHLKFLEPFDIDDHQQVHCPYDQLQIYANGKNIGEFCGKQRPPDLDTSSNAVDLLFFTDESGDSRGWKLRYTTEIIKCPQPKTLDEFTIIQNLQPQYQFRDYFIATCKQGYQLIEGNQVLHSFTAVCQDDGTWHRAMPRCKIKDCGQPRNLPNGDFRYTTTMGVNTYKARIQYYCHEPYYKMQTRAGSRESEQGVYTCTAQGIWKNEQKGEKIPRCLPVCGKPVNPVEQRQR
T1 sequence (P00736 464-705 limits assumed): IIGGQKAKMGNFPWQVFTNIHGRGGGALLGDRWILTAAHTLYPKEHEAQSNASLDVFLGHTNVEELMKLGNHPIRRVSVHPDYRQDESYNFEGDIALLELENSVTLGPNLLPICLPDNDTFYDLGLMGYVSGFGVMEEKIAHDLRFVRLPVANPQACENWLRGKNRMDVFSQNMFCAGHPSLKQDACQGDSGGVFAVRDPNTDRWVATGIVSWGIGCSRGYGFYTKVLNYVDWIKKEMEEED
Experimental: All SPR experiments were carried out using a Biacore T200 (GE Healthcare, Chicago, IL, USA) at 25 °C. For all experiments, a running buffer (HBS-T) of 20 mM HEPES (pH 7.3), 140 mM NaCl, 0.005% (v/v) Tween-20, 5% DMSO (v/v) was used. For each experiment, DMSO calibration curves ranging from 4% to 5.5% DMSO (v/v) were collected at the beginning, end, and every 50 cycles throughout the duration of the experiment. All experiments were performed using HC1500M sensor chips (Xantec, Duesseldorf, Germany). In total, 10 sensor chips and 16 ligand immobilized surfaces were created over the course of this study (detailed in Table S2). In all cases, C1r proteins were immobilized onto chip surfaces using amine-coupling chemistry with 1-ethyl-3-(3-dimethylaminopropyl)-carbodiimide) (EDC), N-hydroxysuccinimide (NHS), followed by ethanolamine. Briefly, 100 mM of EDC and NHS were mixed and injected to activate the chip surface followed by the C1r protein ligand captured at a defined resonance unit (RU) level, followed by reaction quenching with 100 mM ethanolamine pH 8.5. Flow cell 1 was always used as a reference cell (no ligand), unless otherwise noted. All sensorgrams were reference and blank subtracted and analyzed using T200 Evaluation Software (GE Healthcare, Chicago, IL, USA).
To further evaluate hit compounds from the initial SPR screen, dose-dependent SPR binding assays were carried out. Three replicate flow cells were used containing both low and high immobilization densities of C1r (see Table S2). Hit compounds were tested for dose-dependent binding to full-length C1r using a compound concentration range of 7.8–500 µM. T200 evaluation software was used to calculate steady-state affinities for each compound by fitting sensorgrams from each variable concentration injection dataset using a 1:1 Langmuir model of interaction constrained by a theoretical experimental binding response based on the mol. wt. of each compound and derived as stated above. KD values are reported as the mean ± the standard deviation from at least three independent measurements.

Kd ([2]; 1:1 steady-state binding model, mean ± S.D. from three independent injection series, 25 °C): 720 µM | Ligand efficiency (LE) ([2]; LE = ΔG/number of non-hydrogen atoms, ΔG = -RT x ln KD,C1r, using KD values of Fig. 3): 0.25
SMILES: CN1c2ccccc2N(C)C1c1ccccc1 [CMP-4]
inhibition of classical pathway (C4b deposition) relative to non-binding control compound [1]: statistically significant inhibitory activity
